Series [1] has as its system IL-1β, TNF-α, and IL-6. Put plainly: LPS-induced pro-inflammatory cytokine synthesis in PBMC, enzyme immunoassay. Type of series: cell-based, human. The conditions noted are these: 1 µg/mL JO-4, LPS-stimulated PBMC. How it is done: Human peripheral blood mononuclear cells (PBMC) were cultured with B-cell mitogen LPS (Gibco BRL, Grand Island, NY) 3 µg/mL) at 2 x 10^6/mL in 1.0 mL volumes in 24-well plates in the presence of either 1 µg/mL JO-4 or medium for 48 hr. In a 37°C incubator with 5% CO2. Culture supernatants were collected at the end of incubation period and were assayed by enzyme immunoassay for the presence of the cytokines: interleukin-1β,-6 and TNF-α. Results are expressed as inhibition of cytokine production.

Series [2] relates to human PBMCs. Put plainly: PHA-induced proliferation of human PBMCs. It counts as cell-based. The conditions noted are these: 1.25-50.0 µg/mL, 4 days. The protocol:
Human PBMCs were cultured for 4 days in the absence or presence of varying concentrations of JO-4 (1.25, 2.5, 5.0, 10.0 and 50.0 µg/mL). PHA is a potent T-cell mitogen and stimulates T-cells to produce IL-2.

In series [3] the test system is human PBMCs. Put plainly: Toxicity on human PBMC, trypan blue dye exclusion. It counts as cell-based. The note with it: 1.25, 2.5 and 5 µg/mL; 2, 5 and 7 days. The protocol: In order to determine if JO-4 was toxic on human cells in vitro, human PBMCs were cultured in the absence or presence of varying concentrations of JO-4 (1.25, 2.5, and 5 µg/mL) for different days (2, 5 and 7 days). At the end of each incubation period, viability of cells was determined by trypan blue dye exclusion method.

In series [4] the test system is human malignant melanoma (RPMI-7951). Put plainly: Colorimetric MTT cytotoxicity assay, RPMI-7951. It counts as cell-based. The conditions noted are these: RPMI-7951, 72 hours. The protocol: (§1) The following materials and methods were employed in the non-limiting Examples set out below. Tumor cells: Human cervical epitheloid carcinoma (HeLa), human renal clear cell carcinoma (CAKI-1), human malignant melanoma (RPMI-7951) and mouse malignant melanoma (B16-F1) were procured from ATCC (Rockville, MD) and maintained in vitro with MEM medium (Mediatech, Inc., Herndon, VA) supplemented with 10% heat-inactivated fetal bovine serum (American Qualex, San Clemente, CA), 10mM glutamine, 100 U/ml penicillin, and 100 µg/ml streptomycin (Sigma Chemicals, Saint Louis, MO) (complete medium). […] Cell viability was assessed by trypan blue dye exclusion test and the cell number was adjusted to required concentration. Colorimetric MTT assay: Cytotoxic effects of the hypoestoxide compounds of formulas I and II (JO-4A) were determined in vitro by a colorimetric assay (Mosmann, T., J. Immunol. Methods, 65: 55-63, 1983). […] Mixing with a multichannel pipetter dissolved the dark blue crystals and the absorbance was measured at 545-650 nm using an ELISA plate reader. […] The tumors were measured with a microcaliper, and the tumor volume was calculated by the formula: Length x width x height x 0.5236 (Jungwirth, A. et al., Proc. Natl. Acad. Sci. USA, 94:5810-5813, 1997). […]

A short description of series [5]: Colorimetric MTT cytotoxicity assay, HMEC. Type of series: cell-based. The note with it: human, read-out: IC50 concentration (cytotoxicity). In general terms: Formazan colour is commonly taken as a measure of viable cells.
The test system of series [6] is mouse malignant melanoma cells (B16-F1). Put plainly: Colorimetric MTT cytotoxicity assay, B16-F1. The note with it: B16-F1, 72 hours, read-out: IC50 concentration (cytotoxicity). Type of series: cell-based. The protocol:
as §1

Series [7] concerns HIV-1 isolate from a patient. Put plainly: In vitro HIV-1 replication assay in PBMC, p24 antigen EIA. It counts as cell-based, Human Immunodeficiency Virus type 1. The conditions noted are these: Human immunodeficiency virus 1, 168 h, PHA-activated human PBMC, 7 days. How it is done: In Vitro HIV-1 Replication Assay: A standardized peripheral blood mononuclear cell culture assay for the determination of drug susceptibilities of clinical human HIV-1 isolates was utilized (Japour AJ et al. Antimicro Agents Chemother 1993; 37:1095-1101). Peripheral blood mononuclear cells (2 x 10^6 cells/ml) were stimulated with PHA (5 µg/ml) in complete culture medium at 37°C, in a 5% CO2-95% air-humidified incubator for 72 hours. The 3-day-old PHA-stimulated PBMC was sedimented at 400 g for 10 min at 20-24°C. Supernatant was removed and discarded. The cells were resuspended in complete culture medium supplemented with 3% IL-2. Cell viability was determined with 0.4% trypan blue. Viability was greater than 85%. Cell concentration was adjusted to 4x10^6/ml. Cells were dispensed in 50 µl volumes (2x10^5/well) into 96 well microtiter plates containing 50 µl complete culture medium. HIV-1 infected cultures were initiated with a patient's HIV-1 isolate (50 µl/well) at a multiplicity of infection (MOI) of 0.05 and 0.1 respectively. JO-4A was added to wells in 50 µl volumes at varying concentrations (0.0001 µM - 0.5 µM). The plates were incubated at 37°C and 5% CO2 in humidified chamber for 7 days. On day 4, half of the spent medium (100 µl) was discarded, and 50 µl of fresh complete medium and 50 µl of fresh JO-4A (varying concentrations as above) were added to wells containing spent JO-4A. […]

Turning to `C=C1C(=O)C[C@H]2C[C@@H]3O[C@@]3(C)CC[C@@H]3O[C@@]3(C)C[C@@H](OC(C)=O)[C@H]1C2(C)C` [JO-4, hypoestoxide], the “effect on pro-inflammatory cytokine synthesis” value in series [1] was “inhibitory or immunosuppressant effect”. Moreover, in series [2], the “effect on PHA-induced proliferation of human lymphocytes” value is reported as “inhibitory effect”. Besides, the toxicity to lymphocytes result in series [3] was “not toxic”.
In the case of `C=C1C(=O)CC2CC3OC3(C)CCC3OC3(C)CC(O)C1C2(C)C` (stereo not shown) [JO-4A], the IC50 in series [4] was 10 to 12.5 µM; in series [6] it was 6.25 to 12.5 µM; in series [7], 0.0001 to 0.01 µM. Further, the CC50 at 72 h in series [5] was 25 to 50 µM.

The values above are taken from patent EP0986381B1, “USE OF DITERPENES LIKE HYPOESTOXIDES FOR THE MANUFACTURE OF A MEDICAMENT FOR IMMUNOSUPPRESSION, ANTICANCER AND ANTIVIRAL TREATMENT” (Immune Modulation, Inc., priority 1997, dated 1998).
